Measurements reported in article PMC6753678, “Fueling Open Innovation for Malaria Transmission-Blocking Drugs: Hundreds of Molecules Targeting Early Parasite Mosquito Stages” (Frontiers in Microbiology, 2019).
Where two headings read alike, the source gives them in different places.

Key:
[1] = system: 3D7-strain P. falciparum asexual parasites; test: P. falciparum asexual growth inhibition assay (Pf GIA); format: cell-based, Plasmodium falciparum; conditions: dose response confirmation; read-out: Pf asexual growth inhibition assays IC50
Method in brief: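 3D7 parasites at 0.25% parasitemia, 2% hematocrit were exposed to compounds in dose response for 72 h at 37°C under 5% CO2, 5% O2. Viability read as parasite LDH activity (nitro blue tetrazolium, A650) after freeze-thaw; inhibition scaled to chloroquine (50 μM) and DMSO controls, mean of three biological replicates.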

HepG2 cells [2] = test: HepG2 cytotoxicity assay; conditions: for Unified cytotox: HepG2 values of the three screens unified; for IC50: read-out: HepG2 cytotoxicity assay IC50, dose response confirmation
Method in brief: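 Cells at 2,500 per well in MEM with 10% fetal bovine serum and 1% NEAA were exposed to test compounds for 48 h at 37°C, 5% CO2. Viability was read by fluorescence, with percent inhibition calculated against 50 μM doxorubicin (positive) and DMSO (negative) controls.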

[3] = system: P. berghei ookinete development; conditions: for Is compound selective in assay? Pb ODA active?: 1: YES, 0: NO; for % inhibition, Replicate A / % inhibition, Replicate B: primary screen at 1 μM
[4] = system: P. falciparum late stage (stages IV-V) gametocytes; parameters: method as in Almela et al 2016; conditions: ref Almela et al 2016; read-out: Pf GCT ATP IC50; cited from earlier work
HepG2 cells [5] = conditions: HepG2; ref Almela et al 2016; cited from earlier work
[6] = system: P. falciparum late stage (stages IV-V) gametocytes; test: P. falciparum late stage gametocyte ATP depletion assay (Pf GC-ATP); conditions: 1: YES; 0: NO
[7] = read-out: Pb ODA IC50, this manuscript
[8] = read-out: Pb Ookinete development assay IC50, dose response confirmation

Compound | IC50 [1] [nM] | HepG2 cytoxicity (Pb ODA, this manuscript) (HepG2 cells [2]) [µM] | Unified cytotox (HepG2 cells [2]) [µM] | IC50 (HepG2 cells [2]) [nM] | Is compound selective in assay? Pb ODA active? [3] | % inhibition, Replicate A [3] [%] | % inhibition, Replicate B [3] [%] | IC50 [3, 7] [nM] | IC50 [3, 8] [nM] | IC50 [4] [nM] | HepG2 cytoxicity (Pf GCT ATP screen) (HepG2 cells [5]) [µM] | Is compound selective in assay? Pf GC-ATP active? [6]
Cc1ccc(C)c(CC(=O)N2CCC(n3c(C)nc4ccc(F)cc43)CC2)c1 [TCMDC-124790] | 252 | 57.54 | 57.54 | 57500 | 1 (1: YES) | 55.29 | 63.09 | 3660 | 3660 | 920 | >25 | 1 (1: YES)
Cc1[nH]c2ccccc2c1C(=O)C(C)Sc1n[nH]c(-c2ccccc2Br)n1 (stereo not drawn) [TCMDC-125114] | 57 | – | 74.66 | 100000 | 1 (1: YES) | 114.44 | 73.49 | 170 | 174 | 670 | 49.31 | 1 (1: YES)
Cl.Cl.c1ccc2c(NCCCCCCNc3c4ccccc4nc4ccccc34)c3ccccc3nc2c1 [TCMDC-124285] | 532 | 8.13 | 7.56 | 8130 | 0 (0: NO) | 78.92 | 53.92 | 1500 | 1500 | 250 | 7 | 1 (1: YES)
CN1c2ccc([N+](=O)[O-])cc2C(C)(C)C12C=Cc1cc(Br)cc([N+](=O)[O-])c1O2 (stereo not drawn) [TCMDC-124178] | 197 | 29.17 | 29.17 | 29200 | 1 (1: YES) | 65.23 | 65.28 | 1600 | 1600 | 1090 | >25 | 1 (1: YES)
O=c1c(Br)ccccc1Br [TCMDC-142246] | 2070 | 14.79 | 13.70 | 14800 | 1 (1: YES) | 52.58 | 94.32 | 930 | 933 | 210 | 12.6 | 1 (1: YES)
CCOCn1c(-c2ccccc2)cc2c3c(N)nc(N)nc3ccc21 [TCMDC-137979] | 180 | 4.79 | 5.22 | 4790 | 0 (0: NO) | 30.79 | 81.58 | 7500 | 7500 | 1300 | 5.65 | 0 (0: NO)
CCOc1ccc(-c2nonc2NC(=O)c2cccc(Cl)c2)cc1OCC [TCMDC-125200] | 156 | 19.50 | 19.50 | 19500 | 0 (0: NO) | 62.08 | 54.18 | 6230 | 6230 | 840 | >25 | 1 (1: YES)
Cn1nc(C(F)(F)F)c(-c2ccc(Br)cc2)c1NC(=O)Cc1ccccc1F [TCMDC-123792] | 206 | – | 100.00 | 100000 | 1 (1: YES) | 45.62 | 73.81 | 2120 | 2120 | 1790 | >25 | 1 (1: YES)
COc1cccc(NC(=O)[C@H](C(C)C)n2c(=O)[nH]c3ccccc3c2=O)c1 [TCMDC-125133] | 170 | – | 100.00 | 100000 | 1 (1: YES) | 62.00 | 73.38 | – | 1530 | 540 | >50 | 1 (1: YES)
Cc1cc(F)ccc1-c1nc(NCC(O)CNCCc2ccccc2)nc2c1ccc(=O)n2-c1c(F)cccc1F.O=C(O)C(F)(F)F (stereo not drawn) [TCMDC-141784] | 451 | 14.79 | 11.63 | 14800 | 0 (0: NO) | 54.07 | 33.72 | 3850 | 3850 | 230 | 8.47 | 1 (1: YES)
COc1cccc(CC(=O)N2CCC(n3c(C)nc4ccc(C)cc43)CC2)c1 [TCMDC-124791] | 98 | – | 100.00 | 100000 | 1 (1: YES) | 79.91 | 77.59 | 1120 | 1120 | 470 | >25 | 1 (1: YES)
COCCn1c(-c2cccc(Cl)c2)nn(-c2ccc([N+](=O)[O-])cc2C#N)c1=S [TCMDC-134719] | 403 | – | 100.00 | 100000 | 1 (1: YES) | 64.09 | 78.69 | 1840 | 1840 | 2780 | >25 | 1 (1: YES)
C=CC(C)C1OC(=O)c2cc(OC)cc(OC)c21 (stereo not drawn) [TCMDC-138676] | 259 | 1.22 | 1.01 | 1220 | 0 (0: NO) | 44.05 | 73.82 | 490 | 489 | 400 | 0.8 | 0 (0: NO)
